# Source: US5342845A, “Indole derivatives and drugs” (priority 1990, dated 1994)
# pIC50: −log10 of the molar value. Counter-ions that a name gives are not always drawn.
# Experiments:
# [1] = system: cisplatin-induced vomiting; experiment: Inhibition of cisplatin-induced vomiting; assay type: in vivo, beagle dogs; details: for a/b (Number of animals which vomited/number of animals used): 5 min before cisplatin 2 mg/kg i.v., 6 h observation; for Vomiting frequency: control 12.2 ± 0.8; for Latency to vomiting: control 118.9 ± 5.6
# Method: 2. Inhibition of cisplatin-induced vomiting
# The experiment was performed with reference to the method of Cohen et al. (Cohen, M. L., Bloomquist, W., Gidda, J. S. and Lacefie, W: Comparison of the 5-HT3 receptor antagonist properties of ICS-205-930, GR38032F and Zacopride; J. Pharmacol. Exp. Ther. 248, 197-201 (1989)). In this experiment, beagle dogs of either sex, weighing 8-15 kg, were used. […] The test compounds were administered intravenously 5 minutes before the administration of cisplatin.
# [2] = system: Bezold-Jarisch reflex (serotonin-induced decrease in heart rate); experiment: Inhibition of serotonin-induced Bezold-Jarisch reflex; assay type: in vivo, male rats; details: Rattus norvegicus, iv, 5 min; i.v. 5 min before 0.1 mg/kg i.v. serotonin; dose inhibiting response by 50%
# From the text: 1. Inhibition of Bezold-Jarisch reflex
# The effect of the test compound on the serotonin-induced decrease in heart rate (Bezold-Jarisch reflex) was investigated in male rats, 6-8 weeks of age, with reference to the method of Richardson, et al. (Richardson, B. P., Engel, G., Donatsch, P. and Stadle, P. A.: Identification of serotonin-receptor subtypes and their specific blockade by a new class of drugs; Nature 316, 126-131 (1985)). With the animal immobilized in dorsal position under urethane anesthesia, 0.1 mg/kg of serotonin was administered intravenously before and 5 min after intravenous administration of the test compound and changes in heart rate were recorded. […] The ED50 value was calculated by the least square method.
# mice = experiment: Acute toxicity; assay type: in vivo, male mice; details: 48 hours
# From the text: Six-week-old male mice were used.
# muscarine M1 receptors = biological target: T1, muscarine M1 receptors (Rattus norvegicus, UniProt P08482); experiment: Muscarine M1 receptor binding ([^3 H]pirenzepine displacement); details: 1 nM [^3 H]pirenzepine, rat brain membranes, pH 7.4, 25° C., 60 min
# T1 construct: receptor membrane prepared from the rat brain; from tissue; host or cells: rat brain (receptor membrane)
# T1 sequence (P08482 1-460): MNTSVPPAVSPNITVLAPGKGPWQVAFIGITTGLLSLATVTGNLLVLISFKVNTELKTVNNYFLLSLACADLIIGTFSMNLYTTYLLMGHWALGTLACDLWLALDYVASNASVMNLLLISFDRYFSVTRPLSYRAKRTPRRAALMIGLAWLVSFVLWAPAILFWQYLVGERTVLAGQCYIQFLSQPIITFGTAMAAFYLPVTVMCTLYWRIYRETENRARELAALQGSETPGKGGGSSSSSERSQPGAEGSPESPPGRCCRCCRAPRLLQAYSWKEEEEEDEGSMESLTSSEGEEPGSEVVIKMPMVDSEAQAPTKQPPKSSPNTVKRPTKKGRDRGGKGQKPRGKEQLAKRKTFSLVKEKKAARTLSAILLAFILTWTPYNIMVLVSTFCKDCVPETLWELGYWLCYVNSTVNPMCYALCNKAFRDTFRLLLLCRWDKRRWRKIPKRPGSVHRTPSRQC
# Method: 4. Effect on muscarine M1 receptors
# The muscarine M1 receptor binding assay was carried out according to the method of Watson and Yamamura [Life Sci. 32; 3001-3011 (1983)]. Thus, receptor membrane prepared from the rat brain were incubated with 1 nM [^3 H]pirenzepine in 10 mM Na/K phosphate buffer (pH 7.4) at 25° C. for 60 minutes. As a displacer, 1μM atropine was used.
# [3] = system: scopolamine-induced deficits of learning and memory; experiment: Ameliorative effect on scopolamine-induced deficits of learning and memory (step through-type passive avoidance); assay type: in vivo, rats
# Method: 3. Ameliorative effect on scopolamine-induced deficits of learning and memory
# The experiment was performed in groups of 10 rats. In the intraperitoneal administration study, the test compound was dissolved in physiological saline and administered, and 15 minutes later 0.3 mg/kg of scopolamine was administered intraperitoneally. In the oral administration study, the test compound was suspended in 0.5% methylcellulose (MC) solution and administered and 30 minutes later 0.3 mg/kg of scopolamine was administered intraperitoneally. Thirty minutes after scopolamine administration, training sessions for a step through-type passive avoidance learning task was carried out and 24 hours after this training, trial sessions were started.
# The latency to step-through in the trial sessions was determined up to a maximum of 300 seconds and the result was regarded as a learning result. For the test of significant differences from the control group, the Kruscall-Wallis test and the Fisher test were used. The control group received a physiological saline or MC solution.
# [4] = system: emesis associated with the administration of anticancer drugs; details: background art; cited from earlier work
# [5] = oral, 0.03 μg/kg, control 110.1 ± 41.6 (Example 11), 111.9 ± 41.4 (Example 12)
# [6] = oral, 0.1 μg/kg, control 110.1 ± 41.6 (Example 11), 111.9 ± 41.4 (Example 12)
# [7] = oral, 0.3 μg/kg, control 110.1 ± 41.6 (Example 11), 111.9 ± 41.4 (Example 12)
# [8] = oral, 1 μg/kg, control 110.1 ± 41.6 (Example 11), 111.9 ± 41.4 (Example 12)
smiles,measurement,setting,value
"CN1C2CCC1CC(OC(=O)c1c[nH]c3ccccc13)C2 (stereo not shown) [ICS-205-930, reference compound]",a/b (Number of animals which vomited/number of animals used),[1]; 0.03 mg/kg i.v.,4/4
same,Vomiting frequency,[1]; 0.03 mg/kg i.v.,9.5 ± 1.3 times
same,Latency to vomiting,[1]; 0.03 mg/kg i.v.,139.8 ± 13.2 min
same,ED50,[2],1.79 µg/kg
"COc1ccc(-c2c(C(=O)N[C@@H]3CN4CCC3CC4)c3ccccc3n2C)cc1 [Example 2, (S)-(-)-N-(1-Azabicyclo[2,2,2]octo-3-yl)-2-(4-methoxyphenyl)-1-methylindole-3-carboxamide hydrochloride]",Number of dead animals/number of animals used,mice; 30 mg/kg intraperitoneal,0/4
same,Number of dead animals/number of animals used,mice; 50 mg/kg intraperitoneal,0/4
same,a/b (Number of animals which vomited/number of animals used),[1]; 0.03 mg/kg i.v.,2/2
same,Vomiting frequency,[1]; 0.03 mg/kg i.v.,6.5 times
same,Latency to vomiting,[1]; 0.03 mg/kg i.v.,192.0 min
same,ED50,[2],0.3 µg/kg
"COc1ccccc1-c1c(C(=O)N[C@@H]2CN3CCC2CC3)c2ccccc2n1C [Example 11, (S)-(-)-N-(1-Azabicyclo[2,2,2]octo-3-yl)-2-(2-methoxyphenyl)-1-methylindole-3carboxamide hydrochloride]",pIC50,muscarine M1 receptors,5.34
same,a/b (Number of animals which vomited/number of animals used),[1]; 0.01 mg/kg i.v.,4/4
same,Vomiting frequency,[1]; 0.01 mg/kg i.v.,6.8 ± 1.9 times
same,Latency to vomiting,[1]; 0.01 mg/kg i.v.,149.5 ± 5.4 min
same,Latency (to step-through),[3]; [5],214.1 ± 43.8 s
same,Latency (to step-through),[3]; [6],246.5 ± 35.7 s
same,Latency (to step-through),[3]; [7],246.7 ± 35.6 s
same,Latency (to step-through),[3]; [8],162.0 ± 46.1 s
same,ED50,[2],0.14 µg/kg
"Cn1c(-c2ccc(Cl)cc2)c(C(=O)N[C@@H]2CN3CCC2CC3)c2ccccc21 [Example 7, (S)-(-)-N-(1-Azabicyclo[2,2,2]octo-3-yl)-2-(4-chlorophenyl)-1-methylindole-3-carboxamide hydrochloride]",Number of dead animals/number of animals used,mice; 50 mg/kg intraperitoneal,0/4
same,a/b (Number of animals which vomited/number of animals used),[1]; 0.03 mg/kg i.v.,4/4
same,Vomiting frequency,[1]; 0.03 mg/kg i.v.,2.3 ± 0.6 times
same,Latency to vomiting,[1]; 0.03 mg/kg i.v.,206.8 ± 15.7 min
same,ED50,[2],0.28 µg/kg
"Cn1c(-c2ccc(Cl)cc2)c(C(=O)NC2CN3CCC2CC3)c2ccccc21 (stereo not shown) [Example 6, N-(1-Azabicyclo[2,2,2]octo-3-yl)-2-(4-chlorophenyl)-1-methylindole-3-carboxamide hydrochloride]",Number of dead animals/number of animals used,mice; 50 mg/kg intraperitoneal,0/4
"Cn1c(-c2ccccc2Cl)c(C(=O)NC2CN3CCC2CC3)c2ccccc21 (stereo not shown) [Example 10, N-(1-Azabicyclo[2,2,2]octo-3-yl)-2-(2-chlorophenyl)-1-methylindole-3-carboxamide hydrochloride]",ED50,[2],0.25 µg/kg
"Cn1c(-c2ccccc2)c(C(=O)N[C@@H]2CN3CCC2CC3)c2ccccc21 [Example 3, (S)-(-)-N(1-Azabicyclo[2,2,2]octo-3-yl)-2-phenyl-1-methylindole-3-carboxamide hydrochloride]",Number of dead animals/number of animals used,mice; 30 mg/kg intraperitoneal,0/4
same,Number of dead animals/number of animals used,mice; 50 mg/kg intraperitoneal,0/4
same,a/b (Number of animals which vomited/number of animals used),[1]; 0.03 mg/kg i.v.,2/2
same,Vomiting frequency,[1]; 0.03 mg/kg i.v.,1.0 times
same,Latency to vomiting,[1]; 0.03 mg/kg i.v.,215.0 min
"COc1ccc(-c2c(C(=O)NC3CN4CCC3CC4)c3ccccc3n2C)cc1 (stereo not shown) [Example 4, N-(1-Azabicyclo[2,2,21octo-3-yl)-2-(4-methoxyphenyl)-1-methylindole-3-carboxamide hydrochloride]",Number of dead animals/number of animals used,mice; 30 mg/kg intraperitoneal,0/4
same,Number of dead animals/number of animals used,mice; 50 mg/kg intraperitoneal,0/4
"COc1ccccc1-c1c(C(=O)NC2CN3CCC2CC3)c2ccccc2n1C (stereo not shown) [Example 8, N-(1-Azabicylo[2,2,2]octo-3-yl)-2-(2-methoxyphenyl)-1-methylindole-3-carboxamide hydrochloride]",ED50,[2],0.18 µg/kg
"Cn1c(-c2ccccc2Cl)c(C(=O)N[C@@H]2CN3CCC2CC3)c2ccccc21 [Example 12, (S)-(31)-N-(1-Azabicyclo[2,2,2]octo-3-yl)-2-(2-chlorophenyl)-1-methylindole-3-carboxamide hydrochloride]",pIC50,muscarine M1 receptors,5.92
same,a/b (Number of animals which vomited/number of animals used),[1]; 0.001 mg/kg i.v.,4/4
same,Vomiting frequency,[1]; 0.001 mg/kg i.v.,7.0 ± 1.7 times
same,Latency to vomiting,[1]; 0.001 mg/kg i.v.,140.5 ± 13.6 min
same,a/b (Number of animals which vomited/number of animals used),[1]; 0.01 mg/kg i.v.,4/4
same,Vomiting frequency,[1]; 0.01 mg/kg i.v.,3.8 ± 0.5 times
same,Latency to vomiting,[1]; 0.01 mg/kg i.v.,173.8 ± 25.3 min
same,Latency (to step-through),"[3]; intraperitoneal, 0.1 μg/kg, control 103.8 ± 43.1",170.5 ± 43.3 s
same,Latency (to step-through),"[3]; intraperitoneal, 0.3 μg/kg, control 103.8 ± 43.1",183.0 ± 39.6 s
same,Latency (to step-through),"[3]; intraperitoneal, 1 μg/kg, control 103.8 ± 43.1",270.7 ± 29.3 s
same,Latency (to step-through),"[3]; intraperitoneal, 3 μg/kg, control 103.8 ± 43.1",256.3 ± 30.4 s
same,Latency (to step-through),"[3]; intraperitoneal, 10 μg/kg, control 103.8 ± 43.1",163.8 ± 45.6 s
same,Latency (to step-through),"[3]; intraperitoneal, 30 μg/kg, control 103.8 ± 43.1",127.8 ± 46.9 s
same,Latency (to step-through),[3]; [5],108.5 ± 42.0 s
same,Latency (to step-through),[3]; [6],246.3 ± 35.8 s
same,Latency (to step-through),[3]; [7],247.3 ± 35.2 s
same,Latency (to step-through),[3]; [8],105.5 ± 42.6 s
same,Latency (to step-through),"[3]; oral, 3 μg/kg, control 111.9 ± 41.4",139.2 ± 44.0 s
same,ED50,[2],0.2 µg/kg
"Cc1nccn1CC1CCc2c(c3ccccc3n2C)C1=O (stereo not shown) [GR-38032F, ondansetron]",anxiolytic and antipsychotic actions (in words),[4],exhibit excellent anxiolytic and antipsychotic actions
same,effect on emesis associated with anticancer drugs (in words),[4],markedly inhibit the emesis associated with the administration of anticancer drugs
